Reference: PubChem BioAssay AID248 (DTP/NCI, 2004)
“And” between values parts separate entries of the source, which are not always exact repeats. Identical values can stand only once. Toxic doses and inconclusive results are not listed. No stated cut-off is given here; in the data, active means T/C of 150% or more; inactive means T/C below 125%.

Tested on: L1210 leukemia ip in BDF1 mice, survival T/C
Experiment: NCI In Vivo Anticancer Drug Screen. Data for tumor model L1210 Leukemia (intraperitoneal) in B6D2F1 (BDF1) mice
Conditions: endpoint: mean survival time, higher = longer survival
Method in brief: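 Tumor cells were implanted, animals were treated, and survival was followed. The result divides the treated measurement by the vehicle-control measurement.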

[1] = dose: 100.0 mg/kg/injection, schedule: Q04DX003 (ip), vehicle: saline
[2] = dose: 200.0 mg/kg/injection, schedule: Q04DX003 (ip), vehicle: saline
[3] = dose: 400.0 mg/kg/injection, schedule: Q04DX003 (ip), vehicle: saline
[4] = dose: 100.0 mg/kg/injection, schedule: Q01DX009 (ip), vehicle: saline with Tween-80
[5] = dose: 200.0 mg/kg/injection, schedule: Q01DX009 (ip), vehicle: saline with Tween-80
[6] = dose: 400.0 mg/kg/injection, schedule: Q01DX009 (ip), vehicle: saline with Tween-80
[7] = dose: 100.0 mg/kg/injection, schedule: Q01DX001 (ip), vehicle: saline
[8] = dose: 200.0 mg/kg/injection, schedule: Q01DX001 (ip), vehicle: saline
[9] = dose: 400.0 mg/kg/injection, schedule: Q01DX001 (ip), vehicle: saline
[10] = dose: 100.0 mg/kg/injection, schedule: Q04DX002 (ip), vehicle: saline
[11] = dose: 100.0 mg/kg/injection, schedule: Q04DX003 (ip), vehicle: saline with Tween-80
[12] = dose: 200.0 mg/kg/injection, schedule: Q04DX003 (ip), vehicle: saline with Tween-80
[13] = dose: 400.0 mg/kg/injection, schedule: Q04DX003 (ip), vehicle: saline with Tween-80
[14] = dose: 100.0 mg/kg/injection, schedule: Q01DX001 (ip), vehicle: Klucel (hydroxypropylcellulose) (HPC)
[15] = dose: 100.0 mg/kg/injection, schedule: Q04DX003 (ip), vehicle: Klucel (hydroxypropylcellulose) (HPC)
[16] = dose: 200.0 mg/kg/injection, schedule: Q04DX003 (ip), vehicle: Klucel (hydroxypropylcellulose) (HPC)
[17] = dose: 400.0 mg/kg/injection, schedule: Q04DX003 (ip), vehicle: Klucel (hydroxypropylcellulose) (HPC)
[18] = dose: 100.0 mg/kg/injection, schedule: Q04DX002 (ip), vehicle: saline with Tween-80
[19] = dose: 200.0 mg/kg/injection, schedule: Q04DX002 (ip), vehicle: saline with Tween-80

Measured: T/C

O=C(O)C(Cc1ccc(O)cc1)c1ccccc1 (configuration not stated)
inactive: [1] 98 % of control | [2] 94 % of control | [3] 96 % of control

CC(C)(C)c1ccc(C(c2ccc(C(C)(C)C)cc2)C(Cl)(Cl)Cl)cc1
inactive: [4] 88 % of control | dose: 100.0 mg/kg/injection, schedule: Q04DX003 (ip), vehicle: saline sonified 98 % of control | [5] 94 % of control | dose: 200.0 mg/kg/injection, schedule: Q04DX003 (ip), vehicle: saline sonified 95 % of control | [6] 92 % of control | dose: 400.0 mg/kg/injection, schedule: Q04DX003 (ip), vehicle: saline sonified 97 % of control

Cc1ccc2cc(O)ccc2c1
inactive: [7] 91 % of control | dose: 100.0 mg/kg/injection, schedule: Q04DX003 (ip), vehicle: acetone 90 % of control | [8] 96 % of control | dose: 200.0 mg/kg/injection, schedule: Q04DX003 (ip), vehicle: acetone 90 % of control | [9] 92 % of control

NC1=C(c2ccccc2)C(=O)C(N)=C(c2ccccc2)C1=O
inactive: dose: 100.0 mg/kg/injection, schedule: Q01DX001 (ip), vehicle: carboxymethylcellulose (CMC) 96 % of control | dose: 200.0 mg/kg/injection, schedule: Q01DX001 (ip), vehicle: carboxymethylcellulose (CMC) 88 % of control | dose: 400.0 mg/kg/injection, schedule: Q01DX001 (ip), vehicle: carboxymethylcellulose (CMC) 88 % of control

CCOC(=O)c1ccc(NC(=O)Sc2ccccc2C)cc1
inactive: [10] 120 % of control | dose: 200.0 mg/kg/injection, schedule: Q04DX002 (ip), vehicle: saline 120 % of control | dose: 400.0 mg/kg/injection, schedule: Q04DX002 (ip), vehicle: saline 87 % of control

C=C(C)C(=O)OC1CC23OC2CC(COC3O)C2OC2C2OC(=O)C(=C)C12 (configuration not stated)
inactive: dose: 6.25 mg/kg/injection, schedule: Q01DX009 (ip), vehicle: acetone 98 % of control | dose: 12.5 mg/kg/injection, schedule: Q01DX001 (ip), vehicle: acetone 106 % of control | dose: 12.5 mg/kg/injection, schedule: Q01DX009 (ip), vehicle: acetone 104 % of control | dose: 12.5 mg/kg/injection, schedule: Q04DX003 (ip), vehicle: acetone 90 % of control | dose: 25.0 mg/kg/injection, schedule: Q01DX001 (ip), vehicle: acetone 106 % of control | dose: 25.0 mg/kg/injection, schedule: Q04DX003 (ip), vehicle: acetone 104 % of control | dose: 50.0 mg/kg/injection, schedule: Q01DX001 (ip), vehicle: acetone 109 % of control

CC1(C)COP(Oc2ccccc2)OC1
inactive: [4] 100 % of control | [11] 107 % of control | [5] 97 % of control | [12] 103 % of control | [13] 107 % of control

Cc1c2cc3c(c1O)C(=O)CC(O3)c1ccc(O)c(c1)-c1cccc(c1O)C(=O)OCC1OC(O2)C(O)C(O)C1O (configuration not stated)
inactive: dose: 0.13 mg/kg/injection, schedule: Q01DX009 (ip), vehicle: Klucel (hydroxypropylcellulose) (HPC) 104 % of control | dose: 0.25 mg/kg/injection, schedule: Q01DX009 (ip), vehicle: Klucel (hydroxypropylcellulose) (HPC) 97 % of control | dose: 0.5 mg/kg/injection, schedule: Q01DX009 (ip), vehicle: Klucel (hydroxypropylcellulose) (HPC) 98 % of control | dose: 1.0 mg/kg/injection, schedule: Q01DX009 (ip), vehicle: Klucel (hydroxypropylcellulose) (HPC) 103 % of control

ClCC#Cc1ccccc1
inactive: dose: 12.0 mg/kg/injection, schedule: Q01DX009 (ip), vehicle: saline 100 % of control | dose: 25.0 mg/kg/injection, schedule: Q01DX009 (ip), vehicle: saline 100 % of control | dose: 50.0 mg/kg/injection, schedule: Q01DX009 (ip), vehicle: saline 101 % of control | [1] 103 % of control | [2] 92 % of control | [3] 91 % of control

Nc1ccc2c(c1)C(=O)c1cc([N+](=O)[O-])ccc1-2
inactive: dose: 25.0 mg/kg/injection, schedule: Q01DX001 (ip), vehicle: Klucel (hydroxypropylcellulose) (HPC) 97 % of control | dose: 50.0 mg/kg/injection, schedule: Q01DX001 (ip), vehicle: Klucel (hydroxypropylcellulose) (HPC) 90 % of control | [14] 94 % of control

CCCCCCCCCCCCCCCCN(C)/C(=N\NS(=O)(=O)c1cccc([N+](=O)[O-])c1)c1ccc(OC)c(OC)c1
inactive: [15] 93 % of control | [16] 95 % of control | [17] 93 % of control

c1ccc(CNCc2ccccn2)nc1
inactive: dose: 50.0 mg/kg/injection, schedule: Q04DX002 (ip), vehicle: saline 95 % of control | [10] 101 % of control

Nc1nc2c(ncn2-c2ccc(OCCCc3ccccc3)cc2)c(=O)[nH]1
inactive: dose: 1.56 mg/kg/injection, schedule: Q01DX001 (ip), vehicle: saline with Tween-80 97 % of control | dose: 3.13 mg/kg/injection, schedule: Q01DX001 (ip), vehicle: saline with Tween-80 92 % of control | dose: 6.25 mg/kg/injection, schedule: Q01DX001 (ip), vehicle: saline with Tween-80 94 % of control and 87 % of control | dose: 25.0 mg/kg/injection, schedule: Q01DX001 (ip), vehicle: saline with Tween-80 92 % of control and 91 % of control

CCOC(=O)CCC(=O)c1cccc([N+](=O)[O-])c1
inactive: [4] 98 % of control | [5] 96 % of control | [6] 96 % of control

CCOc1cccc(Cc2c[nH]c(=S)[nH]c2=O)c1
inactive: [14] 100 % of control | dose: 200.0 mg/kg/injection, schedule: Q01DX001 (ip), vehicle: Klucel (hydroxypropylcellulose) (HPC) 105 % of control | dose: 400.0 mg/kg/injection, schedule: Q01DX001 (ip), vehicle: Klucel (hydroxypropylcellulose) (HPC) 94 % of control

N#CSCCOCCSC#N
inactive: dose: 5.0 mg/kg/injection, schedule: Q01DX001 (ip), vehicle: saline 108 % of control | dose: 10.0 mg/kg/injection, schedule: Q01DX001 (ip), vehicle: saline 96 % of control

CC#CCOCC1CN(c2ccccc2)C(=O)O1 (configuration not stated)
inactive: [4] 117 % of control | [11] 95 % of control | [5] 103 % of control | [12] 103 % of control | [6] 100 % of control | [13] 101 % of control

O=P1(Cc2ccccc2)C(c2ccccc2)=C(O)CC1c1ccccc1 (configuration not stated)
inactive: [15] 101 % of control | [16] 99 % of control | [17] 89 % of control

COc1ccc(C(=O)NS(=O)(=O)c2ccc(Cl)cc2)cc1
inactive: [11] 107 % of control | [12] 91 % of control | [13] 114 % of control

CC(C)[O][In]([O]C(C)C)[O]C(C)C
inactive: dose: 50.0 mg/kg/injection, schedule: Q04DX003 (ip), vehicle: saline with Tween-80 96 % of control | [11] 99 % of control | [12] 91 % of control | [13] 96 % of control

Cc1ccc(N)cc1
inactive: [7] 114 % of control | [8] 102 % of control

CCCCCCCCCCCCNC(=O)CCl
inactive: dose: 100.0 mg/kg/injection, schedule: Q01DX009 (ip), vehicle: Klucel (hydroxypropylcellulose) (HPC) 87 % of control | [15] 91 % of control | dose: 200.0 mg/kg/injection, schedule: Q01DX009 (ip), vehicle: Klucel (hydroxypropylcellulose) (HPC) 90 % of control | [16] 89 % of control | dose: 400.0 mg/kg/injection, schedule: Q01DX009 (ip), vehicle: Klucel (hydroxypropylcellulose) (HPC) 91 % of control

ClCCCCOCCl
inactive: dose: 50.0 mg/kg/injection, schedule: Q01DX009 (ip), vehicle: saline with Tween-80 101 % of control | [4] 97 % of control | [5] 87 % of control

CCN(CC)c1cc(C)c2cc(Cc3ccc4nc(N(CC)CC)cc(C)c4c3)ccc2n1
inactive: [7] 90 % of control | [8] 96 % of control | [9] 90 % of control

Cc1ccc(NC(=O)OCC(F)(F)C(F)(F)C(F)(F)F)c(NC(=O)OCC(F)(F)C(F)(F)C(F)(F)F)c1
inactive: [18] 98 % of control | [19] 98 % of control | dose: 400.0 mg/kg/injection, schedule: Q04DX002 (ip), vehicle: saline with Tween-80 112 % of control

CCCCOP(=O)(NC1CCCCC1)OCCCC
inactive: dose: 50.0 mg/kg/injection, schedule: Q04DX002 (ip), vehicle: saline with Tween-80 107 % of control | [18] 96 % of control | [19] 104 % of control
